Laboratory results reported in patent US9814714B2, “Kinase modulation, and indications therefor” (Plexxikon Inc., priority 2015, dated 2017).
Like-named read-outs stand apart in the source and are kept apart here.

What was measured:
Type in all cases: cell-based
COLO205 cells = test: Growth inhibition assay (CellTiter-Glo), COLO205; details: Homo sapiens
Description: Cells were incubated overnight at 37° C.
2. […] The maximum concentration was about 5 mM.

COLO829 cells = test: Growth inhibition assay (CellTiter-Glo), COLO829; details: Homo sapiens
Description: (§1) Growth inhibition assay: Cells were plated into a 96-well plate at a density of 3000 cells per well and allowed to adhere overnight. Compounds were dissolved in DMSO, diluted 3-fold to create an 8-point titration and added to cells. After a 72-hour incubation, cell viability was examined using CellTiter-Glo® (Promega).
(§2) In order to determine the effects of Formula I on proliferation, a growth assay was established using melanoma cells (A375 and COLO829) and colorectal carcinoma cells (COLO205, HT-29) which each express the BRAFV600E mutation. To show selectivity over wild-type BRAF, several BRAF wild-type cell lines (K562, NOMO-1, MV-4-11 and ML-2) were also examined in the growth assay. The growth assay implemented the Promega CellTiter-Glo Luminescent Cell viability assay, which gives a luminescent readout that is proportional to the amount of ATP present in a cell sample. As ATP levels directly correlate with the number of viable cells, the luminescent signal can be used to determine the potency of Formula I to block the proliferation of the cell lines of interest.
(§3) 1. 3,000 cells were plated in each well for cell lines A375, COLO205, COLO829, HT-29, and SK-MEL-3. 25,000 cells were plated in each well for cell lines K562, ML-2, MV-4-11, and
(§4) NOMO-1 of a 96-well tissue-culture-treated plate (Corning #3610) in a 50 μL volume. Cells were incubated overnight at 37° C.
(§5) 2. Each test compound was plated as an 8-point titration, using 1:3 dilutions in DMSO. The maximum concentration was about 5 mM. Dilute DMSO and test compound of Formula I 1:250 in growth media.
(§6) 3. 50 μL of the diluted compound was transferred into 50 μL cells, for a 500-fold final compound dilution (maximum concentration is typically 10 μM and DMSO concentration is 0.2%). The cells were incubated with DMSO/compound for 3 days at 37° C. in 5% CO2.
(§7) 4. Cell Titer-Glo Luminescent Assay Reagent was brought to room temperature and reconstituted as directed in the product manual. The cell cultures were also brought to room temperature for about 20-30 minutes. […] Luminescence was measured on a Tecan Safire plate reader. […]

[1] = test system: pERK in COLO829 cells (BRAF^V600E, heterozygous); test: Phospho-ERK AlphaScreen assay, pERK inhibition in COLO829; details: Homo sapiens, COLO-829, 1 h, read-out: pERK inhibition IC50 COLO829
Description: (§8) Phospho-ERK AlphaScreen® assay: The degree of ERK phosphorylation was determined using an AlphaScreen® assay where an increase in ERK1/2 phosphorylation at Thr202/Tyr204 brought the donor and acceptor AlphaScreen® beads into close proximity, generating a signal for quantification. To determine the effects of compound treatment on phosphorylation of ERK1/2, cells were plated in a 96-well plate and treated with an 8-point titration of compound for one hour at 37° C. before lysis. To detect pERK, cell lysates were incubated with streptavidin-coated AlphaScreen® donor beads, anti-mouse IgG AlphaScreen® acceptor beads, a biotinylated anti-ERK1/2 rabbit antibody, and a mouse antibody that recognizes ERK1/2 only when it is phosphorylated on Thr202 and Tyr204. The biotinylated ERK1/2 antibody binds to both the streptavidin-coated AlphaScreen® donor beads and to ERK1/2 (regardless of its phosphorylation state), and the phospho-ERK1/2 antibody binds to the acceptor beads and to ERK1/2 that is phosphorylated at Thr202/Tyr204. An increase in ERK1/2 phosphorylation at Thr202/Tyr204 brings the donor and acceptor AlphaScreen® beads into close proximity, generating a signal that can be quantified on an EnVision reader (Perkin Elmer).
(§9) Using AlphaScreen® technology, the ability of Formula I to affect the phosphorylation of ERK and MEK in the cells was measured quantitatively. Following treatment with compound, the cells were lysed, and a sample of the lysate was transferred to an assay plate. The lysate was mixed with antibodies directed against total ERK/MEK, antibodies that recognize specific phosphorylation sites on ERK/MEK, AlphaScreen® anti-mouse IgG Acceptor beads, and Streptavidin Donor beads. Upon excitation of the donor beads with laser light at 680 nm, singlet oxygen was produced. This singlet oxygen was rapidly quenched, unless the AlphaScreen® Acceptor beads were in close proximity, in which case a proximity signal can be measured at 580 nm. In the presence of phosphorylated ERK/MEK, there is a very strong proximity signal.
(§10) 1. One day before the assay, 50,000 cells were plated in each well of a 96-well tissue-culture-treated plate (Corning #3610) in a 50 μL volume. Cells were incubated at 37° C. overnight.
(§11) 2. Compounds were diluted in DMSO to 500× final concentration. Each compound was plated as an 8-point titration, using 1:3 dilutions in DMSO. The maximum concentration was about 5 mM.
(§12) 3. 1 μl of compound was added to each well of a 96-well polypropylene plate (Corning #3363). For A375, COLO829, SK-MEL-3, HCT116, and HT-29, the high control was DMSO, and the low control was 10 μM PLX4720 (CAS No. 918505-84-7). For B9 and IPC-298, the high control was 3.33 μM PLX4720, and the low control was DMSO. 4. 249 μL growth media was added to compounds, diluting them 250-fold. 5. […] The compound was incubated with the cells at 37° C. for one hour. 6. The media was aspirated, and the cells were lysed in 50 μL of ice-cold 1× Cell Lysis buffer. The plates were incubated on ice for 5 minutes to allow complete lysis of the cells. 7. A mixture of biotinylated donor antibody, acceptor antibody, and anti-mouse IgG AlphaScreen® acceptor beads in 1× AlphaLISA immunoassay buffer was prepared. 8. 5 μL of lysate was transferred to a 384-well assay plate (Perkin Elmer #6005359). 5 μL of the antibody and acceptor bead mixture was added. The plates were spinned.

A375 cells = test: Growth inhibition assay (CellTiter-Glo), A375; details: Homo sapiens
Description: as §1, §2, §3, §4, §5, §6, §7

[2] = test system: pERK in HCT116 cells (KRAS^G13D); test: Phospho-ERK AlphaScreen assay, pERK activation in HCT116; details: Homo sapiens, HCT-116
Description: as §8, §9, §10, §11, §12

[3] = COLO 205, 72-hour incubation, read-out: In vitro growth inhibition IC50, COLO205
[4] = COLO-829, 72-hour incubation, read-out: In vitro growth inhibition IC50, COLO829
[5] = COLO829, BRAF^V600E heterozygous, one hour treatment
[6] = A-375, 72-hour incubation, read-out: In vitro growth inhibition IC50, A375
[7] = HCT116, KRAS^G13D, concentration increasing pERK to 50% compared to positive control 10 μM PLX4720, read-out: pERK activation EC50 HCT116
[8] = read-out: pERK activation Mean EC50, HCT116

For `CCCS(=O)(=O)Nc1ccc(F)c(C(=O)c2c[nH]c3ncc(-c4ccc(Cl)cc4)cc23)c1F` [Vemurafenib, vemurafenib, reference compound], the IC50 (COLO205 cells; [3]) was 250 nM, the IC50 (COLO829 cells; [4]) was 690 nM and the IC50 [1, 5] was 41 nM. It also gave an IC50 (A375 cells; [6]) of 330 nM, an EC50 [2, 7] of 340 nM and an EC50 [2, 8] of 286 nM.
In the case of `CCN(C)S(=O)(=O)Nc1ccc(F)c(C(=O)c2c[nH]c3ncc(-c4cnc(C5CC5)nc4)cc23)c1F` [Formula II, 5-(2-cyclopropylpyrimidin-5-yl)-3-[3-[[ethyl(methyl)sulfamoyl]amino]-2,6-difluoro-benzoyl]-1H-pyrrolo[2,3-b]pyridine], the IC50 (COLO205 cells; [3]) is reported as 160 nM, the IC50 (COLO829 cells; [4]) is reported as 530 nM and the IC50 [1, 5] is reported as 2.1 nM. For the same compound, the IC50 (A375 cells; [6]) was 170 nM and the EC50 [2, 7] was greater than 200000 nM.
`O=C(c1c(F)ccc(NS(=O)(=O)N2CC[C@@H](F)C2)c1F)c1c[nH]c2ncc(-c3cnc(C4CC4)nc3)cc12` [Formula I, (3R)—N-[3-[5-(2-cyclopropylpyrimidin-5-yl)-1H-pyrrolo[2,3-b]pyridine-3-carbonyl]-2,4-difluorophenyl]-3-fluoropyrrolidine-1-sulfonamide] was tested, and the IC50 (COLO205 cells; COLO 205, 72 h, Table 4, colorectal adenocarcinoma, BRAF V600E/WT, RAS WT, 3 days, read-out: Growth IC50 Colo205) was 10 nM, the IC50 (COLO829 cells; COLO-829, 72 h, Table 4, melanoma, BRAF V600E/WT, RAS WT, 3 days, read-out: Growth IC50 Colo829) was 100 nM and the IC50 [1] was 18 nM. It also gave an IC50 (A375 cells; A-375, 72 h, Table 4, melanoma, BRAF V600E, RAS WT, 3 days, read-out: Growth IC50 A375) of 50 nM, an EC50 [2, 7] greater than 200000 nM and an EC50 [2, 8] of 10000 nM.
